Source: patent US6251940A, “Inflammatory cell inhibitors” (British Biotech Pharmaceuticals Ltd., priority 1998, dated 2001)

What was measured:
Human PBMCs [1] = test: Inhibition of antigen (PPD)-induced T lymphocyte proliferation of PBMCs; format: cell-based; conditions: PBMC, PPD 1 μg/ml, 72 hrs, tritiated thymidine, read-out: IC50, PBMCs stimulated with PPD
Human PBMCs [2] = test: Inhibition of mitogen (PWM)-induced lymphocyte proliferation of PBMCs; format: cell-based; conditions: PBMC, PWM 2.5 μg/ml, 48 hrs, tritiated thymidine, read-out: IC50, PBMCs stimulated with PWM
Description: Inhibition of Mitogen-induced Lymphocyte Proliferation
The compounds of examples 1, 2, 3, 6, 19, 39, 40 and 43 above were tested for their effects on the proliferation of peripheral blood mononuclear cells (PBMCs) in vitro. The PBMCs were activated with Pokeweed mitogen (PWM), a potent activator of lymphocytes and monocytes which leads to B and T lymphocyte proliferation.
Human PBMCs (2×10^4 cells/well), purified from whole blood by centrifugation through ficoll/hypaque, were incubated with PWM (2.5 μg/ml) and compounds 1 and 2 at a range of dilutions in 96 well microtitre plates for 48 hrs at 37° C. in a 5% CO2 incubator. DMSO was run in each assay as a vehicle control. 0.5 μCuries of tritiated thymidine in 40 μl (Amersham) were added to each well during the final 18 hrs. The cells were then harvested on glass fibre pads using a Tomtech cell harvester and, after adding scintillant to the pad (Meltilex) they were placed in a Wallac MicroBeta plate counter. The results obtained are in counts per minute and reflect the level of tritiated thymidine incorporation into the cells and therefore the level of cell proliferation. The percentage proliferation in test wells compared to control wells was calculated and the inhibition curves plotted. The IC50 values were calculated from the inhibition curves.

CD69 = CD69 expression on T cells activated by anti-CD3 (FACS); format: cell-based, Human; conditions: 4 hrs treatment; untreated cells 68%
Description: The compounds of examples 1, 6, 19, 39, 40 and 43 above were tested for its effects on anti-CD3-driven proliferation of peripheral blood mononuclear cells (PBMCs) in vitro. The PBMCs were activated with anti-CD3 antibody which directly activates T lymphocytes via the T cell receptor CD3 component, although other cells do contribute to T cell proliferation by co-stimulation and growth factor production. Human PBMCs (5×10^4cells/well), purified from whole blood by centrifugation through ficoll/hypaque, were incubated in monoclonal anti-CD3 antibody-coated wells (5 μg/ml) and compound 1 at a range of dilutions in a 96 well microtitre plate for 48 hrs at 37° C. in a 5% CO2 incubator. DMSO was run in each assay as a vehicle control. 0.5 μCuries of tritiated thymidine in 40 μl (Amersham) were added to each well during the final 18 hrs. The cells were then harvested on glass fibre pads using a Tomtech cell harvester and, after adding scintillant to the pad (Meltilex) they were placed in a Wallac MicroBeta plate counter. […] The percentage proliferation in test wells compared to control wells was calculated. The results were plotted and the IC50 value calculated.
CD69 is a membrane marker of T cell activation. The level of CD69 expression on the membranes of T cells activated by anti-CD3 was therefore measured by fluorescence activated cell (FACS) flow cytometry.

Human PBMCs [3] = test: Inhibition of anti-CD3-induced T lymphocyte proliferation of PBMCs; format: cell-based; conditions: 48 hrs; for Inhibition of cell proliferation (in words), anti-CD3: range of dilutions
Description: Inhibition of Anti-CD3-induced T Lymphocyte Activation and Proliferation
The compounds of examples 1, 6, 19, 39, 40 and 43 above were tested for its effects on anti-CD3-driven proliferation of peripheral blood mononuclear cells (PBMCs) in vitro. The PBMCs were activated with anti-CD3 antibody which directly activates T lymphocytes via the T cell receptor CD3 component, although other cells do contribute to T cell proliferation by co-stimulation and growth factor production. Human PBMCs (5×10^4cells/well), purified from whole blood by centrifugation through ficoll/hypaque, were incubated in monoclonal anti-CD3 antibody-coated wells (5 μg/ml) and compound 1 at a range of dilutions in a 96 well microtitre plate for 48 hrs at 37° C. in a 5% CO2 incubator. DMSO was run in each assay as a vehicle control. 0.5 μCuries of tritiated thymidine in 40 μl (Amersham) were added to each well during the final 18 hrs. The cells were then harvested on glass fibre pads using a Tomtech cell harvester and, after adding scintillant to the pad (Meltilex) they were placed in a Wallac MicroBeta plate counter. The results obtained are in counts per minute and reflect the level of tritiated thymidine incorporation into the cells and therefore the level of cell proliferation. The percentage proliferation in test wells compared to control wells was calculated. The results were plotted and the IC50 value calculated.

TNF [4] = test: Inhibition of production of TNF, PPD-activated PBMCs (ELISA); format: cell-based, Human; conditions: 48 hrs
Description: (§1) Inhibition of Production of TNF
(§2) The compound of example 3 above was tested for its effect on the production of the pro-inflammatory cytokine TNF. TNF is released from various cells (monocytes and B lymphocytes) following activation by mitogen or antigen. The production of this inflammatory mediator in the supernatant of activated PBMCs was measured by ELISA.
(§3) Human PBMCs (2-5×10^6 cells/well), purified from whole blood by centrifugation through ficoll/hypaque, were incubated with either PWM (2.5 μg/ml) or PPD (1 μg/ml) and compound example 3 at 10 μM in a 24 well microtitre plates for 48 hrs at 37° C. in a CO2 incubator. DMSO was run in each assay as a vehicle control. Supernatant was removed after 48 hrs and microfuged at 10,000 rpm for 2 minutes. Supematant was removed, aliquotted and stored at -70° C. until tested.

TNF [5] = test: Inhibition of production of TNF, PWM-activated PBMCs (ELISA); format: cell-based, Human; conditions: 48 hrs
Description: as §1, §2, §3

[6] = test system: Experimental Autoimmune Neuritis; test: Experimental Autoimmune Neuritis animal model; format: in vivo, Male Lewis rats; conditions: 100 mg.kg^-1 ip uid, day 1 to 14; day 15 post-inoculation; groups of 9
TNF alpha = test: Inhibition of TNF production in PWM-activated whole blood; format: cell-based; conditions: 10 μM, PWM-activated whole blood diluted 1/5, 24 hours; for TNF alpha: vehicle 1031 pg/ml
Description: as §3
In a modification of the above procedure, the compounds of Examples 19 and 40 were tested at 10 μM for inhibition of TNF production in PWM-activated whole blood diluted 1/5 in RPMI containing 1% nutridoma. The supernatants were tested after 24 hours of culture.

Compound | IC50 (Human PBMCs [1]) [µM] | IC50 (Human PBMCs [2]) [µM] | Inhibition of cell proliferation (in words), anti-CD3 (Human PBMCs [3]) | other results
C=CC[C@H](C(=O)NO)[C@@H](CC(C)C)C(=O)N[C@@H](Cc1ccccc1)C(=O)OC [Example 1, 2S-(3S-Hydroxycarbamoyl-2R-isobutyl-hex-5-enoylamino)-3-phenylpropionic acid methyl ester] | 2 | 4.7 | inhibited cell proliferation in a dose related fashion | expression of CD69 (% of T cells) (CD69): 48%; IC50 (Human PBMCs [3]; Homo sapiens, PBMC, anti-CD3 antibody-coated wells 5 μg/ml, tritiated thymidine, read-out: IC50, PBMCs stimulated with ANTI-CD3): 2.1 µM
C=CC[C@H](C(=O)NO)[C@@H](CC(C)C)C(=O)N[C@@H](Cc1ccccc1)C(=O)OCC [Example 2, 2S-(3S-Hydroxycarbamoyl-2R-isobutyl-hex-5-enoylamino)-3-phenylpropionic acid ethyl ester] | – | 4.8 | – | –
C=CC[C@H](C(=O)NO)[C@@H](CC(C)C)C(=O)N[C@@H](Cc1ccccc1)C(=O)OC(C)C [Example 3, 2S-(3S-Hydroxycarbamoyl-2R-isobutyl-hex-5-enoylamino)-3-phenylpropionic acid isopropyl ester] | 1.8 | 2.4 | – | TNF, ACTIVATED PPD (TNF [4]; 10 μM, dmso 50 pg/ml): 15 pg/mL; inhibition at 10 µM (TNF [4]; Homo sapiens, PBMC, versus dmso, read-out: reduction of the level of TNF production, PPD system): 70%; TNF, ACTIVATED PWM (TNF [5]; 10 μM, dmso 1390 pg/ml): 495 pg/mL; inhibition at 10 µM (TNF [5]; Homo sapiens, PBMC, versus dmso, read-out: reduction of the level of TNF production, PWM system): 64%
CC(C)C[C@H](CC(=O)NO)C(=O)N[C@@H](Cc1ccccc1)C(=O)OC(C)C [Example 6, 2S-(2R-Hydroxycarbamoylmethyl-4-methyl-pentanoylamino)-3-phenyl-propionic acid isopropyl ester] | – | – | inhibited cell proliferation in a dose related fashion | –
C=CC[C@H](C(=O)NO)[C@@H](CC(C)C)C(=O)N[C@@H](Cc1ccccc1)C(=O)OC1CCCC1 [Example 19, 2S-(3S-Hydroxycarbamoyl-2R-isobutyl-hex-5-enoylamino)-3-phenylpropionic acid cyclopentyl ester] | 1.1 | – | inhibited cell proliferation in a dose related fashion | reduction in mean clinical score compared to vehicle group [6]: 93%; TNF production (in words) (TNF alpha): reduced the level of TNF production; TNF alpha (TNF alpha): 489 pg/mL
C=CC[C@H](C(=O)NO)[C@@H](CC(C)C)C(=O)N[C@@H](COC(C)(C)C)C(=O)OC1CCCC1 [Example 39, 3-tert-Butoxy-2S-(3S-hydroxycarbamoyl-2R-isobutyl-hex-5-enoylamino)-propionic acid cyclopentyl ester] | – | – | inhibited cell proliferation in a dose related fashion | –
C=CC[C@H](C(=O)NO)[C@@H](CC(C)C)C(=O)N[C@H](C(=O)OC1CCCC1)c1ccccc1 [Example 40, 2S-(3S-Hydroxycarbamoyl-2R-isobutyl-hex-5-enoylamino)-2-phenylethanoic acid cyclopentyl ester] | – | – | inhibited cell proliferation in a dose related fashion | TNF production (in words) (TNF alpha): reduced the level of TNF production; TNF alpha (TNF alpha): 600 pg/mL
CC(C)C[C@@H](C(=O)NC(C(=O)OC1CCCC1)c1ccccc1)[C@H](O)C(=O)NO (stereo partly drawn) [Example 43, 2-[2R-(S-Hydroxy-hydroxycarbamoyl-methyl)-4-methyl-pentanoylamine]-2-phenyl-ethanoic acid cyclopentyl ester] | – | – | inhibited cell proliferation in a dose related fashion | –
